Tested on: Sprague Dawly rats
Experiment: Fat-Binding Evaluation via Paper Staining
Type: in vivo
Details: male rats, chow diet with 15 percent lard; lipase inhibitor (Orlistat) 0.04 percent by weight, no polymer; average of 24 experiments
Method: The model consists of male, Sprague Dawly rats, 160 g, housed individually in wire mesh cages. They were acclimated to the facility for six days, during which time they were fed a chow based diet supplemented with 15 percent lard by weight. Feed and water were provided ad libitum. The animals were then randomly assigned to groups of four and fed test diets for three days. The test diet was also a chow based feed. A lipase inhibitor (Orlistat) was added at 0.04 percent by weight and the polymer was added at 0.30 percent by weight. They were mixed in the feed as a powder followed by the addition of the supplemented fat in the form of lard at 15 percent by weight. During the final 24 hours of the treatment period an 8.5″×11″ sheet of white paper was placed beneath each cage. One inch squares were drawn on the paper creating a grid of 80 squares. When oil in the form of unabsorbed dietary triglyceride seeps from the stool, it stains the paper. This can be readily discerned from urine if the papers were allowed to dry for six hours. The oil stains confer translucence to the paper. The squares that contain these oil stains were counted and expressed as a percentage of total area stained.

SMILES: CCCCCCCCCCC[C@@H](C[C@@H]1OC(=O)[C@H]1CCCCCC)OC(=O)[C@H](CC(C)C)NC=O [Control 2, Orlistat]
- Percentage of Paper Stained: 39 ± 6%
